# Data published in patent publication US12167742B2, “Nutritional composition comprising 6′SL and LNT in combination to improve the gastrointestinal barrier function” (SOCIETE DES PRODUITS NESTLE S.A., priority 2018, dated 2024).
# Molecular target: GPR35 (Homo sapiens, UniProt Q9HC97)
# Assay: PathHunter β-Arrestin assay, activation of GPR35 expressed in cultured cells (DiscoverX)
# Format: cell-based
# Conditions: for activation of GPR35: Example 2, HMO screening, highest concentration tested 10 mM; for EC50: dose-response by 3× dilutions from 10 mM, duplicate, β-arrestin recruitment
# Protocol: Six human milk oligosaccharides (LNnT, LNT, 2′FL, diFL, 6′SL and 3′SL) were screened for their ability to activate the GPR35 receptor in an in vitro assay. The screening was conducted by DiscoverX (Fremont, Ca, USA) using the PathHunter β-Arresin assay. This assay monitors the activation of GPR35 expressed in cultured cells, using Enzyme Fragment Complementation with β-galactosidase (β-Gal) as the functional reporter. […] EA is fused to β-Arrestin and PK is fused to GPR35. When the GPR35 is activated and β-Arrestin is recruited to the receptor, PK and EA complementation occurs, restoring β-Gal activity, which is measured using chemiluminescent Detection Reagents.
# The GPR35 cell line was expanded from frozen stocks and cultured according to standard procedures. Cells were seeded in a total volume of 20 μL into white walled, 384-well microplates and incubated at 37° C. for the appropriate time prior to testing. All testing was done in duplicate.
# HMO samples were shipped to DiscoverX as concentrated stocks in Phosphate Buffered saline. On the test day, a 5× compound working intermediate was prepared in PBS. An amount of 5 μL of 5× sample was added to cells and incubated at room temperature for 3 to 5 hours.
# Assay signal was generated through a single addition of 12.5 μL (50% v/v) of PathHunter Detection reagent cocktail, followed by one-hour incubation at room temperature. Microplates were read following signal generation with a PerkinElmer Envision™ instrument for chemiluminescent signal detection.
# Zaprinast (which is known to be an activator of GPR35) was used as positive control.
# Percentage activity was calculated using the following formula: % Activity=100%×(mean RLU of test sample−mean RLU of vehicle control)/(mean MAX control ligand−mean RLU of vehicle control).
# Dose-responses were generated by iterative 3× dilutions of the highest concentration tested (10 mM).
# The samples were diluted in 1×PBS (pH˜7) at 5× concentrations and sent to DiscoverX. The GPR35 activation assay was performed as described in Example 2.
# Chain of GPR35 (Q9HC97 whole entry): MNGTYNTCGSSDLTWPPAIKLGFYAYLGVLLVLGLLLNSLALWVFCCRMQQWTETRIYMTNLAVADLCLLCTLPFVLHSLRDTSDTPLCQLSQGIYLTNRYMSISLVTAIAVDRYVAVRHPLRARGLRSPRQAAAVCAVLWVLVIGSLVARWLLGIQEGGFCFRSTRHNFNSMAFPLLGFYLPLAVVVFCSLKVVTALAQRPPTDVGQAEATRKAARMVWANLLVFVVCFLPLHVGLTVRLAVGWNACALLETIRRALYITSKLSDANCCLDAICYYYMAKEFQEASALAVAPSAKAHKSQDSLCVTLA
SMILES,activation of GPR35,EC50 [mM]
"CC(=O)N[C@H]1[C@H]([C@H](O)[C@H](O)CO)O[C@@](O[C@H]2[C@@H](O)[C@@H](CO)O[C@@H](O[C@H]3[C@H](O)[C@@H](O)C(O)O[C@@H]3CO)[C@@H]2O)(C(=O)O)C[C@@H]1O (some centres unmarked) [3′SL, 3′ sialyllactose]",No activation,
"CC(=O)N[C@H]1[C@H](O[C@H]2[C@@H](O)[C@@H](CO)O[C@@H](O[C@H]3[C@H](O)[C@@H](O)C(O)O[C@@H]3CO)[C@@H]2O)O[C@H](CO)[C@@H](O)[C@@H]1O[C@@H]1O[C@H](CO)[C@H](O)[C@H](O)[C@H]1O (some centres unmarked) [LNT, lacto-N-tetraose]",,4.5
"C[C@@H]1O[C@@H](O[C@H]2[C@H](O[C@H]3[C@H](O[C@@H]4O[C@@H](C)[C@@H](O)[C@@H](O)[C@@H]4O)[C@@H](O)C(O)O[C@@H]3CO)O[C@H](CO)[C@H](O)[C@@H]2O)[C@@H](O)[C@H](O)[C@@H]1O (some centres unmarked) [diFL, difucosyllactose]",No activation,
"CC(=O)N[C@H]1[C@H](O[C@H]2[C@@H](O)[C@@H](CO)O[C@@H](O[C@H]3[C@H](O)[C@@H](O)C(O)O[C@@H]3CO)[C@@H]2O)O[C@H](CO)[C@@H](O[C@@H]2O[C@H](CO)[C@H](O)[C@H](O)[C@H]2O)[C@@H]1O (mixture of isomers) [LNnT, lacto-N-neotetraose]",No activation,
"CC(=O)N[C@H]1[C@H]([C@H](O)[C@H](O)CO)O[C@@](OC[C@H]2O[C@@H](O[C@H]3[C@H](O)[C@@H](O)[C@H](O)O[C@@H]3CO)[C@H](O)[C@@H](O)[C@H]2O)(C(=O)O)C[C@@H]1O [6′SL, 6′-sialyllactose]",,6.5
